From article PMC12540964 (AMB Express, 2025)
Converted amounts (≈) assume the structure as drawn. Like-named read-outs stand apart in the source and are kept apart here. Marks after values point to notes of the source that are not given here.

Key:
[1] = system: Staphylococcus aureus (ATCC 29213); assay: Microdilution method (MIC, MBC); format: cell-based
Experimental: (§1) The strains Escherichia coli (ATCC 25922), Pseudomonas aeruginosa NIH, Listeria monocytogenes (ATCC 13932), and Staphylococcus aureus (ATCC 29213) were used. After overnight incubation at 30 °C, the inhibition zone diameters (IZD) were measured in millimeters (mm). Next, the microdilution method served to assess the minimum inhibitory concentration (MIC) and minimum bactericidal concentration (MBC) (Bouyahya et al. [2020a], [b]).

[2] = system: Pseudomonas aeruginosa NIH; assay: Microdilution method (MIC, MBC); format: cell-based; conditions: for MBC / MIC: Pseudomonas aeruginosa; for MBC: read-out: MBC (minimum bactericidal concentration); for MIC: read-out: MIC (minimum inhibitory concentration); for MBC/MIC: 1 suggests bactericidal
Experimental: as §1

[3] = system: Listeria monocytogenes (ATCC 13932); assay: Microdilution method (MIC, MBC); format: cell-based; conditions: for MBC / MIC: Listeria monocytogenes; for MBC/MIC: 1 suggests bactericidal
Experimental: as §1

[4] = system: Escherichia coli (ATCC 25922); assay: Microdilution method (MIC, MBC); format: cell-based
Experimental: as §1

[5] = Reducing ferric power test (FRAP); conditions: 700 nm
Experimental: CEEO, carvacrol, menthol, and tricosane were mixed with phosphate buffer and potassium ferricyanide solution, incubated, and treated with trichloroacetic acid. After centrifugation, the upper layer was analyzed for absorbance (700 nm) with Trolox serving as a reference. The assay was done in triplicate, and the IC50 (μg/mL) was calculated (El Omari et al. [2023]).

[6] = ABTS radical scavenging activity
Experimental: The ABTS cation radical was generated from the reaction between ABTS solution and potassium persulfate with Trolox as a positive control. The assay was performed in triplicate and expressed in IC50 (μg/mL) (El Omari et al. [2023]).

[7] = DPPH test; conditions: radical scavenging, 30 min, 517 nm
Experimental: This assay used DPPH radical to assess the free radical-scavenging ability. Samples dissolved in methanol were mixed with a methanolic solution of DPPH and incubated, in triplicate, at ambient temperature for 30 min (El Omari et al. [2023]). Absorbance was read at 517 nm, and the percentage of DPPH radical scavenging and the inhibition in IC50 (μg/mL) were calculated. Trolox served as a positive control.

[8] = system: Staphylococcus aureus (ATCC 29213); assay: Disk diffusion method (inhibition zone diameter); format: cell-based; conditions: S. aureus, Gram-positive
Experimental: as §1

[9] = system: Pseudomonas aeruginosa NIH; assay: Disk diffusion method (inhibition zone diameter); format: cell-based; conditions: P. aeruginosa, Gram-negative
Experimental: as §1

[10] = system: Listeria monocytogenes (ATCC 13932); assay: Disk diffusion method (inhibition zone diameter); format: cell-based; conditions: L. monocytogenes, Gram-positive
Experimental: as §1

[11] = system: Escherichia coli (ATCC 25922); assay: Disk diffusion method (inhibition zone diameter); format: cell-based; conditions: E. coli, Gram-negative
Experimental: as §1

[12] = biological target: T1, α-amylase (Bacillus licheniformis, UniProt P06278); assay: α-Amylase inhibitory test; format: biochemical
T1 construct: purchased
Experimental: (§2) The α-glucosidase from Saccharomyces cerevisiae and the α-amylase from Bacillus licheniformis were also obtained from reliable commercial sources. Additional reagents were carefully selected from reputable suppliers. Mueller–Hinton agar was sourced from Biokar in Beauvais, France. All other chemicals used are of analytical grade.
Initially, 250 μL of each sample was mixed with 250 μL of sodium phosphate buffer (SPB) (0.02 M & pH = 6.9) and α-amylase enzyme (240 U/mL). The blend was then incubated at 37 °C/20 min. Then, a 1% starch solution (250 μL) in SPB was added, followed by incubation at 37 °C/15 min. Thereafter, 1 mL of dinitrosalicylic acid (DNS) was also added, and the mix was heated for 10 min (Bouyahya et al. [2019a], [b]; Omari et al. [2023]). The solution was then diluted with 2 mL of sterile water, and the OD (540 nm) was measured. […] The % of inhibition was calculated using the formula: [drawing 1]

[13] = biological target: elastase (Sus scrofa, UniProt P00772); assay: Elastase inhibitory assay; format: biochemical; conditions: 410 nm
Experimental: Then, 200 µL of an elastase solution prepared in Tris–HCl buffer (0.2 M, pH 8.0) was mixed with 50 µL of each sample. Following a 15-min incubation at 25 °C, 200 µL of N-succinyl-Ala-Ala-p-nitroanilide solution was added, and the reaction mixtures were homogenized. Absorbances were recorded at 410 nm after an additional 20-min incubation at 25 °C. The data obtained were used to determine the IC50 and to calculate the percent inhibition of elastase.

[14] = biological target: tyrosinase (Agaricus bisporus, UniProt C7FF04); set-up: method as in El Khoury et al. [2019]; conditions: carvacrol from Origanum EOs; ref El Khoury et al. [2019]; cited from earlier work
[15] = biological target: T2, α-glucosidase (Saccharomyces cerevisiae, UniProt P53341); assay: α-Glucosidase inhibitory test; format: biochemical
T2 construct: purchased
Experimental: as §2
The inhibition of α-glucosidase action was assessed using the pNPG substrate as previously detailed (Bouyahya et al. [2021]). A mixture of 200 μL of the samples and 100 μL SPB (0.1 M & pH = 6.7), mixed with α-glucosidase (0.1 U/mL), underwent incubation at 37 °C/10 min. Next, 200 μL of pNPG (1 mM) solution in SPB (0.1 M & pH = 6.7) was added, then incubated at 37 °C/30 min. The measurement of α-glucosidase inhibition was done by measuring the OD (405 nm) after adding 1 mL of Na2CO3 (0.1 M).

[16] = ATCC29213, S. aureus, read-out: MBC (minimum bactericidal concentration)
[17] = ATCC29213, S. aureus, read-out: MIC (minimum inhibitory concentration)
[18] = ATCC13932, L. monocytogenes, read-out: MBC (minimum bactericidal concentration)
[19] = ATCC13932, L. monocytogenes, read-out: MIC (minimum inhibitory concentration)
[20] = ATCC25922, E. coli, read-out: MBC (minimum bactericidal concentration)
[21] = ATCC25922, E. coli, read-out: MIC (minimum inhibitory concentration)
[22] = Elastase IC50, N-succinyl-Ala-Ala-p-nitroanilide

T1 sequence (P06278 30-512): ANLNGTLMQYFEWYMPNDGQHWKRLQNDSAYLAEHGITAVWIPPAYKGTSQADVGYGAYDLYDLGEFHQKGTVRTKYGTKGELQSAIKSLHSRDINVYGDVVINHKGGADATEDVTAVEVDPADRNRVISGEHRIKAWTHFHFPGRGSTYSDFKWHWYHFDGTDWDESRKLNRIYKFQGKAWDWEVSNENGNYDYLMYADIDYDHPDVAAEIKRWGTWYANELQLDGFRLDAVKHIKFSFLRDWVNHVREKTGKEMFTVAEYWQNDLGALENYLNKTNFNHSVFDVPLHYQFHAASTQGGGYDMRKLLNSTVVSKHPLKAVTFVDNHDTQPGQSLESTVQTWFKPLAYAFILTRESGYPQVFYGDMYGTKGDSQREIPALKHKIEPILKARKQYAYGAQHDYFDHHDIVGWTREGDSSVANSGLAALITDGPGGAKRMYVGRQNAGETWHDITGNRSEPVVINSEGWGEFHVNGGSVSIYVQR
Chain of elastase (P00772 27-266): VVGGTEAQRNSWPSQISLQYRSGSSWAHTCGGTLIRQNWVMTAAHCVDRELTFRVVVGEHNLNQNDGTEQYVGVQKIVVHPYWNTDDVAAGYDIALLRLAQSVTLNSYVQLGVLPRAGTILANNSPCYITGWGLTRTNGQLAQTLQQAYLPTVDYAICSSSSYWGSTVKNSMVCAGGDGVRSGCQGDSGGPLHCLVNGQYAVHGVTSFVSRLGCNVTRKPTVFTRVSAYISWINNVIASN
T2 sequence (P53341 whole entry): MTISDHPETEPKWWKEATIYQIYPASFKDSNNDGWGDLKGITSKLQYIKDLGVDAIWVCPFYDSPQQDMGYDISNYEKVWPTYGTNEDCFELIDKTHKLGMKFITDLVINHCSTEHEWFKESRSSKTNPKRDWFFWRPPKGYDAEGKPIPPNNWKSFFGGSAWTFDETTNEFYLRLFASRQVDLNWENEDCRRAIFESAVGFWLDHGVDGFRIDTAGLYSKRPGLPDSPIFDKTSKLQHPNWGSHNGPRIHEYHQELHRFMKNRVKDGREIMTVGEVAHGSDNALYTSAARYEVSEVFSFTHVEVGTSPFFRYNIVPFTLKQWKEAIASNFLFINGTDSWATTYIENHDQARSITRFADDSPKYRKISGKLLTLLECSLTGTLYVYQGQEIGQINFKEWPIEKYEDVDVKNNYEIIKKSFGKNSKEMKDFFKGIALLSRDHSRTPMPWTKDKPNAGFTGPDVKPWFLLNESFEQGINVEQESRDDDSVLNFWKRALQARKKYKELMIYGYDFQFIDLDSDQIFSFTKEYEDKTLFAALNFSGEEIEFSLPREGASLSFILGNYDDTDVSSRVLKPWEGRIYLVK
Chain of tyrosinase (C7FF04 1-392): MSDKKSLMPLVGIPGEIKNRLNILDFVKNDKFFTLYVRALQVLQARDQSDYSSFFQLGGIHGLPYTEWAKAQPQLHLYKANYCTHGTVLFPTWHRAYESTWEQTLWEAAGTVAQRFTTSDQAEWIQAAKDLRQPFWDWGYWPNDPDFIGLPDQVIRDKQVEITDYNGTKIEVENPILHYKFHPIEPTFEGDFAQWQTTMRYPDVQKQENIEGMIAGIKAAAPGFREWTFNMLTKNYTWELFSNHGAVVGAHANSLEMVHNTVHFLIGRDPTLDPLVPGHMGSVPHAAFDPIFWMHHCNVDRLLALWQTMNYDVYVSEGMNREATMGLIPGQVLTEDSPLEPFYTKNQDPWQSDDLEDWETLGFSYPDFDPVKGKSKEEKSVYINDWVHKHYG

Structure (SMILES) | MBC [1, 16] | MIC [1, 17] | MBC ([2]; P. aeruginosa) | MIC ([2]; P. aeruginosa) | MBC [3, 18] | MIC [3, 19] | MBC [4, 20] | MIC [4, 21] | FRAP IC50 [5] | ABTS IC50 [6] | DPPH IC50 [7] | IZD (inhibition zone diameter) [8] | IZD (inhibition zone diameter) [9] | IZD (inhibition zone diameter) [10] | IZD (inhibition zone diameter) [11] | IC50 [12] | IC50 [13, 22] | MBC/MIC ([2]; P. aeruginosa) | MBC/MIC ([3]; L. monocytogenes) | IC50 [15] | other results
O=C(N[C@H](CO)[C@H](O)c1ccc([N+](=O)[O-])cc1)C(Cl)Cl [Chloramphenicol, reference compound] | 32 µg/mL (≈ 99 µM) | 8 µg/mL (≈ 24.8 µM) | 64 µg/mL (≈ 198 µM) | 64 µg/mL (≈ 198 µM) | 32 µg/mL (≈ 99 µM) | 16 µg/mL (≈ 49.5 µM) | 32 µg/mL (≈ 99 µM) | 8 µg/mL (≈ 24.8 µM) | – | – | – | – | – | – | – | – | – | – | – | – | –
Cc1c(C)c2c(c(C)c1O)CCC(C)(C(=O)O)O2 (stereo not shown) [Trolox, reference compound] | – | – | – | – | – | – | – | – | 54.74 ± 3.85^f µg/mL | 55.25 ± 4.19^b µg/mL | 34.12 ± 2.13^h µg/mL | – | – | – | – | – | – | – | – | – | –
Cc1ccc(C(C)C)cc1O [Carvacrol, carvacrol] | – | – | – | – | – | – | – | – | 59.96 ± 2.60^f µg/mL | 81.41 ± 4.31^b µg/mL | 48.06 ± 4.31^h µg/mL | 35.33 ± 1.52^a mm | 29 ± 2.64^c mm | 33 ± 2.64^a mm | 31.33 ± 2.51^b mm | 3770 µM | 830 µM | 1 | 1 | 1340 µM | tyrosinase inhibition [14]: 56.55%; MBC ([1]; ATCC29213, read-out: MBC (minimum bactericidal concentration)): 0.025 µg/mL (≈ 0.166 µM); MIC ([1]; ATCC29213, read-out: MIC (minimum inhibitory concentration)): 0.0125 µg/mL (≈ 0.0832 µM); MBC [2]: 0.5 µg/mL (≈ 3.33 µM); MIC [2]: 0.5 µg/mL (≈ 3.33 µM); MBC ([3]; ATCC13932, read-out: MBC (minimum bactericidal concentration)): 0.125 µg/mL (≈ 0.832 µM); MIC ([3]; ATCC13932, read-out: MIC (minimum inhibitory concentration)): 0.125 µg/mL (≈ 0.832 µM); MBC ([4]; ATCC25922, read-out: MBC (minimum bactericidal concentration)): 0.25 µg/mL (≈ 1.66 µM); MIC ([4]; ATCC25922, read-out: MIC (minimum inhibitory concentration)): 0.125 µg/mL (≈ 0.832 µM)
CC1CCC(C(C)C)C(O)C1 (stereo not shown) [Menthol, menthol] | 1 µg/mL (≈ 6.4 µM) | 0.5 µg/mL (≈ 3.2 µM) | 1 µg/mL (≈ 6.4 µM) | 0.25 µg/mL (≈ 1.6 µM) | 0.5 µg/mL (≈ 3.2 µM) | 0.25 µg/mL (≈ 1.6 µM) | 2 µg/mL (≈ 12.8 µM) | 0.5 µg/mL (≈ 3.2 µM) | 57.93 ± 15.63^f µg/mL | 71.76 ± 3.16^a µg/mL | 58.89 ± 4.03^a µg/mL | 32 ± 2.64^a mm | 18 ± 4.5^b mm | 26.33 ± 1.52^b mm | 14 ± 2^a mm | 3020 µM | 717 µM | – | – | 1170 µM | –
CCCCCCCCCCCCCCCCCCCCCCC [Tricosane, tricosane] | 0.5 µg/mL (≈ 1.54 µM) | 0.125 µg/mL (≈ 0.385 µM) | 0.5 µg/mL (≈ 1.54 µM) | 0.5 µg/mL (≈ 1.54 µM) | 0.25 µg/mL (≈ 0.77 µM) | 0.25 µg/mL (≈ 0.77 µM) | 1 µg/mL (≈ 3.08 µM) | 0.25 µg/mL (≈ 0.77 µM) | 103.9 ± 2.48 µg/mL | 120.34 ± 2.97 µg/mL | 91.03 ± 0.3^b µg/mL | 29 ± 4.58^a mm | 17 ± 2.51^b mm | 31.67 ± 4.04^b mm | 20.67 ± 2.08^C mm | 1190 µM | – | 1 | 1 | 592 µM | IC50 ([13]; N-succinyl-Ala-Ala-p-nitroanilide, read-out: Elastase IC50 (converted)): 384 µM
